± gives the standard deviation of the averaged measurements.
Tested on: SYO-1
Test: relative viability vs DMSO control (72 h) (fraction); higher = more viable cells
Method in brief: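 Relative viability was measured with ATPLite and expressed as percent growth, averaged across up to triplicate wells. Sarcoma cell lines had been seeded in 384-well plates to reach 80–90% confluence, dosed after 24 h, and incubated 72 h at 37 °C, 5% CO2. All data were rescaled on a scale where 1 is full and 0 is none.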

SMILES | relative viability (0.00017 µM) | relative viability (0.00051 µM) | relative viability (0.00152 µM) | relative viability (0.00457 µM) | relative viability (0.01372 µM) | relative viability (0.04115 µM) | relative viability (0.1235 µM) | relative viability (0.3704 µM) | relative viability (1.111 µM) | relative viability (3.333 µM) | relative viability (10 µM)
COc1cc2/c(=N/c3ccc(Br)cc3F)nc[nH]c2cc1OCC1CCN(C)CC1 [Vandetanib] | 0.926 ± 0.02 | 0.924 ± 0.043 | 0.927 ± 0.028 | 0.899 ± 0.067 | 0.889 ± 0.041 | 0.848 ± 0.034 | 0.793 ± 0.011 | 0.65 ± 0.015 | 0.4003 ± 0.0022 | 0.0998 ± 0.016 | -0.00567 ± 0.0018
CCCS(=O)(=O)Nc1ccc(F)c(C(=O)c2c[nH]c3ncc(-c4ccc(Cl)cc4)cc23)c1F [Vemurafenib] | 0.954 ± 0.056 | 0.955 ± 0.048 | 0.963 ± 0.04 | 0.966 ± 0.061 | 0.975 ± 0.051 | 0.967 ± 0.043 | 0.974 ± 0.024 | 1 ± 0.027 | 0.986 ± 0.042 | 0.95 ± 0.076 | 0.608 ± 0.072
C[C@@H](c1ccc2nccn2c1)n1nnc2ncc(-c3cnn(C)c3)nc21 [Volitinib] | 0.96 ± 0.038 | 0.999 ± 0.065 | 1 ± 0.025 | 0.979 ± 0.03 | 0.985 ± 0.024 | 0.992 ± 0.032 | 1.01 ± 0.087 | 0.98 ± 0.051 | 0.996 ± 0.058 | 0.977 ± 0.085 | 1.03 ± 0.047
C=CC(=O)N1CCC([C@@H]2CCNc3c(C(N)=O)c(-c4ccc(Oc5ccccc5)cc4)nn32)CC1 [Zanubrutinib] | 0.982 ± 0.032 | 0.978 ± 0.025 | 0.976 ± 0.018 | 0.979 ± 0.018 | 0.984 ± 0.015 | 0.9556 ± 0.0067 | 0.967 ± 0.018 | 0.959 ± 0.06 | 0.97 ± 0.061 | 0.884 ± 0.076 | 0.763 ± 0.053

Source: the supplement of paper PMC10883282
